For six compounds, IC50 results are on record in PubChem BioAssay AID830 (PCMD, 2007).

By pIC50 is commonly meant the IC50 on a negative log10 scale, so that one unit is a factor of ten.

pIC50: −log10 of the molar value. Results filed as inconclusive are left out.

The target in the assay is Cathepsin B (Homo sapiens) (UniProt P07858). Nature of the assay: potency determination for CTSB inhibitors, concentration-dependent titration, enzymatic biochemical, actives identified in pooled-sample high-throughput screen (AID 830). Conditions: purified cathepsin B enzyme activity, signal read-out.
For `O=S(=O)(/N=S1/CC=CCN1S(=O)(=O)c1ccccc1)c1ccccc1` (stereo unspecified), the pIC50 was 5.03.

In the case of `Cc1ccc(S(=O)(=O)n2nc(OC(=O)c3ccco3)cc2N)cc1`, the pIC50 was 5.76.

Take `Nc1cc(OC(=O)c2ccco2)nn1S(=O)(=O)c1ccc(F)cc1`: the pIC50 is 5.90.

As to `Cc1ccc(S(=O)(=O)n2nc(OC(=O)c3cccs3)cc2N)cc1`, the pIC50 is 5.70.

For the compound `Nc1nc2n(n1)C1(CCCCC1)C1=C(CCCC1)N2`, the pIC50 was 4.89.

For `Nc1cc(OC(=O)c2cccs2)nn1S(=O)(=O)c1ccccc1`, the pIC50 is 6.61.
